In one assay the test system is RS4;11 cells. In words: Cell viability assay (CellTiter-Glo) in RS4;11 cell line. Type of assay: cell-based. The settings on record: 24 hours, 10% Human Serum, 50% decrease in cell viability. The text has this: (§1) The acute lymphoblastic leukemia (ALL) human cell line RS4;11 (ATCC, Manassas VA) was used as the primary human cell line to assess the cellular activity of compound of the present Examples in vitro and their efficacy in vivo. BH3 profiling, a mitochondrial assay that classifies blocks in the intrinsic apoptotic pathway, has shown that RS4;11 cells were highly dependent on Bcl-2 protein for survival and were sensitive to a Bcl-2 inhibitor (Blood. 2008; 111(4):2300-2309). […] The acute lymphoblastic leukemia cell line Molt-4, which is derived from immature T-lymphoid cells (T-ALL), was used as a counter screen assay.
(§2) Frozen RS4;11 or Molt-4 cells (ATCC, Manassas, VA, USA) were thawed overnight in RPMI 1640 media (Thermo Fisher Scientific, Waltham, MA, USA) supplemented with 1% penicillin/streptomycin (Thermo Fisher Scientific, Waltham, MA, USA), and 10% Human Serum (Sigma, St. Louis, MO, USA). 3000 Cells (0.1×10^6/mL) were seeded in each well of 384-well plate and were treated for 24 hours in a humidified chamber with 5% CO2. Cell viability was determined by CellTiter-Glo as described by the manufacturer's instructions (Promega Corporation, Madison, WI, USA). Responses were determined as a percentage of the control treated cells and the effective concentration (EC50) to induce a 50% decrease in cell viability were determined from sigmoidal dose-response curves using Dotmatics (Dotmatics Software Company, Bishops Stortford, Hertfordshire, England).
On the technique in general: ATP-based viability assays read luminescence as a measure of living cells.

For the next assay, the system named is Molt-4 cells. In words: Cell viability counter screen assay (CellTiter-Glo) in Molt-4 cells. Type of assay: cell-based. To be noted: 24 hours, 10% Human Serum, 50% decrease in cell viability.
Source text: as §1, §2
A general note: Counterscreens check selectivity or assay interference.

The term EC50 denotes the concentration that produces a half-maximal response. A higher EC50 goes with a need for much substance. For `CC1(C)CC(c2ccc(Cl)cc2)=C2CN3CCN(c4ccc(C(=O)NS(=O)(=O)c5cnc(OC[C@]6(F)CC[C@@H](N7CCOCC7)CC6)c(Cl)c5)c(N5CCCOc6nc7[nH]ccc7cc65)c4)C[C@H]3COCCCO[C@@H]2C1` [Example 10, N-((5-chloro-6-(((1s,4s)-1-fluoro-4-morpholinocyclohexyl)methoxy)pyridin-3-yl)sulfonyl)-4-((4aS,10aR)-14-(4-chlorophenyl)-12,12-dimethyl-1,2,4a,5,8,9,10a,11,13,15-decahydro-7H,12H-benzo[f]pyrazino[2,1-c][1,8]dioxa[4]azacycloundecin-3(4H)-yl)-2-(3,4-dihydro-2H-pyrrolo[3′,2′:5,6]pyrido[2,3-b][1,4]oxazepin-1(7H)-yl)benzamide], the EC50 in the assay on RS4;11 cells was 3.73 nM; with Molt-4 cells, 1560 nM.

For the compound `CO[C@H]1CC[C@H](CNc2ccc(S(=O)(=O)NC(=O)c3ccc(N4CCN5CC6=C(c7ccc(Cl)cc7)CC(C)(C)C[C@H]6OCCCOC[C@@H]5C4)cc3N3CCCOc4nc5[nH]ccc5cc43)cc2[N+](=O)[O-])OC1` [Example 13, 4-((4aS,10aR)-14-(4-chlorophenyl)-12,12-dimethyl-1,2,4a,5,8,9,10a,11,13,15-decahydro-7H,12H-benzo[f]pyrazino[2,1-c][1,8]dioxa[4]azacycloundecin-3(4H)-yl)-2-(3,4-dihydro-2H-pyrrolo[3′,2′:5,6]pyrido[2,3-b][1,4]oxazepin-1(7H)-yl)-N-((4-((((2R,5S)-5-methoxytetrahydro-2H-pyran-2-yl)methyl)amino)-3-nitrophenyl)sulfonyl)benzamide], the EC50 turned out to be 2.95 nM with RS4;11 cells and 1700 nM in the assay with Molt-4 cells.

For the compound `CC1(C)CC(c2ccc(Cl)cc2)=C2CN3CCN(c4ccc(C(=O)NS(=O)(=O)c5ccc(OCC6(F)CCN(C7COC7)CC6)c(Cl)c5)c(N5CCCOc6nc7[nH]ccc7cc65)c4)C[C@H]3COCCCO[C@@H]2C1` [Example 9, N-(3-chloro-4-{[4-fluoro-1-(oxetan-3-yl)piperidin-4-yl]methoxy}benzene-1-sulfonyl)-4-[(4aS,10aR)-14-(4-chlorophenyl)-12,12-dimethyl-1,2,4a,5,8,9,11,12,13,15-decahydro-7H,10aH-pyrazino[2,1-g][1,5,8]benzodioxazacycloundecin-3(4H)-yl]-2-(3,4-dihydro-2H-pyrrolo[3′,2′:5,6]pyrido[2,3-b][1,4]oxazepin-1(7H)-yl)benzamide], the EC50 with RS4;11 cells was found to be 7.96 nM; with Molt-4 cells, 5590 nM.

As to `CC1(C)CC(c2ccc(Cl)cc2)=C2CN3CCN(c4ccc(C(=O)NS(=O)(=O)c5ccc(NC[C@H]6CC[C@@](C)(O)CC6)c([N+](=O)[O-])c5)c(N5CCCOc6nc7[nH]ccc7cc65)c4)C[C@H]3COCCCO[C@@H]2C1` [Example 36, 4-((4aS,10aR)-14-(4-chlorophenyl)-12,12-dimethyl-1,2,4a,5,8,9,10a,11,13,15-decahydro-7H,12H-benzo[f]pyrazino[2,1-c][1,8]dioxa[4]azacycloundecin-3(4H)-yl)-2-(3,4-dihydro-2H-pyrrolo[3′,2′:5,6]pyrido[2,3-b][1,4]oxazepin-1(7H)-yl)-N-((4-((((1s,4s)-4-hydroxy-4-methylcyclohexyl)methyl)amino)-3-nitrophenyl)sulfonyl)benzamide], the results for the EC50 in the assay with RS4;11 cells and with Molt-4 cells were 1.47 nM and 117 nM, respectively.

As for `CC1(C)CC(c2ccc(Cl)cc2)=C2CN3CCN(c4ccc(C(=O)NS(=O)(=O)c5ccc(NC[C@H]6CC[C@H](O)CO6)c([N+](=O)[O-])c5)c(N5CCCOc6nc7[nH]ccc7cc65)c4)C[C@H]3COCCCO[C@@H]2C1` [Example 12, 4-((4aS,10aR)-14-(4-chlorophenyl)-12,12-dimethyl-1,2,4a,5,8,9,10a,11,13,15-decahydro-7H,12H-benzo[f]pyrazino[2,1-c][1,8]dioxa[4]azacycloundecin-3(4H)-yl)-2-(3,4-dihydro-2H-pyrrolo[3′,2′:5,6]pyrido[2,3-b][1,4]oxazepin-1(7H)-yl)-N-((4-((((2R,5S)-5-hydroxytetrahydro-2H-pyran-2-yl)methyl)amino)-3-nitrophenyl)sulfonyl)benzamide], the EC50 in the assay on RS4;11 cells stood at 0.966 nM; in the assay with Molt-4 cells, 823 nM.

These data come from patent US11964990B2, “1,3,4,7-tetrahydro-2H-pyrrolo[3′,2′:5,6]pyrido[2,3-b][1,4]oxazepine bcl-2 inhibitors” (AbbVie Inc., priority 2022, dated 2024).
